These results are taken from patent US12643912B2, “Macrocyclic compounds, a process for their preparation and pharmaceutical compositions containing them” (LES LABORATOIRES SERVIER, priority 2020, dated 2026).

In experiment [1] the test system is Nrf2 (Keap1-NRF2 nuclear translocation). The experiment is described as follows: U2OS translocation assay (PathHunter U2OS Keap1-NRF2 Nuclear Translocation Cell Line). Format: cell-based. The procedure, abridged: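 PathHunter U2OS line expressing Nrf2-enzyme-donor fusion and nuclear acceptor enzyme, 7 500 cells/well in Opti-MEM, 1% FBS. Compounds incubated 3 h at 37° C. Luminescence after 60 min with detection reagent, normalized between 1% DMSO and 10 μM andrographolide.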

Experiment [2] concerns the target T1, Keap1 (A321-C624) (h) (Homo sapiens, UniProt Q14145).
T1 construct: His-Thromb-KEAP1(A321-C624) acquired from Novalix (batch PU-P01) was immobilized covalently by amine coupling; His tag (N); thrombin cleavage site (Thromb) (N); purchased Novalix batch PU-P01
The experiment is described as follows: Surface Plasmon Resonance binding assay to Kelch domain of KEAP1. Particulars: Biacore T200, 25° C., immobilized His-Thromb-KEAP1(A321-C624), single cycle kinetics, KD=kd/ka from 1:1 fit; read-out: Keap1 (A321-C624) (h) direct/SPR (KD). On the procedure: EXAMPLE 85: SURFACE PLASMON RESONANCE
Binding assay to Kelch domain of KEAP1 was performed by Surface Plasmon Resonance (SPR) on a Biacore T200 (GE Healthcare) at 25° C. using CM5 chip. His-Thromb-KEAP1(A321-C624) acquired from Novalix (batch PU-P01) was immobilized covalently by amine coupling using standard wizard protocol, at a concentration of 20 μg/mL in sodium acetate pH 5.5. The ligand was captured until 1250 RU was reached. Amine blank is used as the reference flow cell. Binding of analyte to the ligand was monitored in real time with associations of 180 seconds and a dissociation of 720 seconds. Association (ka) and dissociation (kd) rates were fitted with a simple 1:1 kinetic interaction model using Biacore T200 Evaluation Software (GE Healthcare). The equilibrium constant (KD=kd/ka) was calculated from these fitted parameters. […] The Biacore binding assay was performed with a flowrate of 50 μL/min using a running buffer of 10 mM HEPES (pH 7.4), 150 mM NaCl, 3 mM EDTA, 1 mM TCEP, 0.05% P20,5% DMSO. Double subtraction was used by subtracting both reference flow cell and previous blank cycle (with running buffer). Solvent correction was applied to correct DMSO bulk effect.
Background: SPR reads the build-up and loss of mass on a sensor chip optically.

Where [3] appears, read: read-out: CELLULAR U2OS EC50, U2OS Keap1-NRF2 nuclear translocation cells, 3 h incubation, luminescence, normalized between 1% DMSO and 10 μM andrographolide.

Where two headings read alike, the source gives them in different places.

T1 sequence (Q14145 321-624): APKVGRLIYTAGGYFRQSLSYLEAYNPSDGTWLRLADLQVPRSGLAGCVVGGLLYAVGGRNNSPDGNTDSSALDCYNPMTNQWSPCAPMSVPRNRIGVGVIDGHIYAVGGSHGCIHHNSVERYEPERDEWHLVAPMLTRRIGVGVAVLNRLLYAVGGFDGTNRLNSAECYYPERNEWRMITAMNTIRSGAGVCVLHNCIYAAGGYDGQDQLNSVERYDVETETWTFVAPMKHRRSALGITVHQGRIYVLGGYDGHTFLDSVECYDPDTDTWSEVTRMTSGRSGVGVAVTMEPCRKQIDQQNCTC

Take `Cc1c2ccc3c1nnn3CCCCOc1ccc3c(c1)CN(Cc1cc(cc(C(F)(F)F)c1)C2CC(=O)O)S(=O)(=O)O3` (single isomer, unassigned) [Example 12b, [31-Methyl-27,27-dioxo-5-(trifluoromethyl)-21,26-dioxa-27λ^6-thia-1,14,15,16-tetraazahexacyclo[20.5.3.1^3,70.1^9,130.0^12,160.0^25,29]dotriaconta-3(32),4,6,9(31),10,12,14,22,24,29-decaen-8-yl]acetic acid]: the EC50 (in general, the concentration giving half of the maximal effect) in experiment [1] (setting [3]) was more than 3160 nM. Also, the Kd in experiment [2] worked out at 2920 nM.
Consider `Cc1ccc2cc1CN1Cc3cc(cc(C)c3OS1(=O)=O)OCCCCn1nnc3c(C)c(ccc31)C2CC(=O)O` (single isomer, unassigned) [Example 15a, [4,24,31-Trimethyl-27,27-dioxo-21,26-dioxa-27λ^6-thia-1,14,15,16-tetraazahexacyclo[20.5.3.1^3,70.1^9,130.0^12,160.0^25,29]dotriaconta-3(32),4,6,9(31),10,12,14,22,24,29-decaen-8-yl]acetic acid], for which the EC50 in experiment [1] (setting [3]) was 57.9 nM. Moreover, in experiment [2], the Kd came out at 1.92 nM.
For the compound `Cc1ccc2cc1CN1Cc3cc(cc(C)c3OS1(=O)=O)OCCCCn1nnc3c(C)c(ccc31)C2CC(=O)O` (single isomer, unassigned) [Example 15b, [4,24,31-Trimethyl-27,27-dioxo-21,26-dioxa-27λ^6-thia-1,14,15,16-tetraazahexacyclo[20.5.3.1^3,70.1^9,130.0^12,160.0^25,29]dotriaconta-3(32),4,6,9(31),10,12,14,22,24,29-decaen-8-yl]acetic acid], the EC50 in experiment [1] (setting [3]) is 381 nM. The Kd in experiment [2] came to 4.41 nM.
As for `COc1cc2cc3c1OS(=O)(=O)N(Cc1cc(ccc1C)C(CC(=O)O)c1ccc4c(nnn4CCCCO2)c1C)C3` (single isomer, unassigned) [Example 16a, [24-Methoxy-4,31-dimethyl-27,27-dioxo-21,26-dioxa-27λ^6-thia-1,14,15,16-tetraazahexacyclo[20.5.3.1^3,70.1^9,130.0^12,160.0^25,29]dotriaconta-3(32),4,6,9(31),10,12,14,22,24,29-decaen-8-yl]acetic acid], the concentration for a half-maximal effect (EC50) in experiment [1] (setting [3]) was 871 nM. The Kd in experiment [2] is 4.03 nM.
For `COc1cc2cc3c1OS(=O)(=O)N(Cc1cc(ccc1C)C(CC(=O)O)c1ccc4c(nnn4CCCCO2)c1C)C3` (single isomer, unassigned) [Example 16b, [24-Methoxy-4,31-dimethyl-27,27-dioxo-21,26-dioxa-27λ^6-thia-1,14,15,16-tetraazahexacyclo[20.5.3.1^3,70.1^9,130.0^12,160.0^25,29]dotriaconta-3(32),4,6,9(31),10,12,14,22,24,29-decaen-8-yl]acetic acid], the EC50 in experiment [1] (setting [3]) was 108 nM. For the same compound, in experiment [2], the Kd turned out to be 1.73 nM.
On to `Cc1ccc2cc1CN1Cc3cc(cc(F)c3OS1(=O)=O)OCCCCn1nnc3c(C)c(ccc31)C2CC(=O)O` (single isomer, unassigned) [Example 17a, [24-Fluoro-4,31-dimethyl-27,27-dioxo-21,26-dioxa-27λ^6-thia-1,14,15,16-tetraazahexacyclo[20.5.3.1^3,70.1^9,130.0^12,160.0^25,29]dotriaconta-3(32),4,6,9(31),10,12,14,22,24,29-decaen-8-yl]acetic acid], for which, in experiment [1] (setting [3]), the EC50 is 1660 nM. The Kd in experiment [2] was determined as 25.7 nM.
Regarding `Cc1ccc2cc1CN1Cc3cc(cc(F)c3OS1(=O)=O)OCCCCn1nnc3c(C)c(ccc31)C2CC(=O)O` (single isomer, unassigned) [Example 17b, [24-Fluoro-4,31-dimethyl-27,27-dioxo-21,26-dioxa-27λ^6-thia-1,14,15,16-tetraazahexacyclo[20.5.3.1^3,70.1^9,130.0^12,160.0^25,29]dotriaconta-3(32),4,6,9(31),10,12,14,22,24,29-decaen-8-yl]acetic acid], the EC50 in experiment [1] (setting [3]) worked out at 89 nM. The Kd in experiment [2] came out at 5.55 nM.
For the compound `Cc1c(F)cc2cc1CN1Cc3cc(ccc3OS1(=O)=O)OCCCCn1nnc3c(C)c(ccc31)C2CC(=O)O` (single isomer, unassigned) [Example 18a, [5-Fluoro-4,31-dimethyl-27,27-dioxo-21,26-dioxa-27λ^6-thia-1,14,15,16-tetraazahexacyclo[20.5.3.1^3,70.1^9,130.0^12,160.0^25,29]dotriaconta-3(32),4,6,9(31),10,12,14,22,24,29-decaen-8-yl]acetic acid], the EC50 in experiment [1] (setting [3]) was determined as 1140 nM. In experiment [2], the Kd came to 3.67 nM.
Take `Cc1c(F)cc2cc1CN1Cc3cc(ccc3OS1(=O)=O)OCCCCn1nnc3c(C)c(ccc31)C2CC(=O)O` (single isomer, unassigned) [Example 18b, [5-Fluoro-4,31-dimethyl-27,27-dioxo-21,26-dioxa-27λ^6-thia-1,14,15,16-tetraazahexacyclo[20.5.3.1^3,70.1^9,130.0^12,160.0^25,29]dotriaconta-3(32),4,6,9(31),10,12,14,22,24,29-decaen-8-yl]acetic acid]: the EC50 in experiment [1] (setting [3]) was found to be 91.3 nM. In addition, in experiment [2], the Kd was 1.01 nM.
The corresponding values for `Cc1ccc2cc1CN1Cc3cc(c(Cl)cc3OS1(=O)=O)OCCCCn1nnc3c(C)c(ccc31)C2CC(=O)O` (single isomer, unassigned) [Example 22a, [23-Chloro-4,31-dimethyl-27,27-dioxo-21,26-dioxa-27λ^6-thia-1,14,15,16-tetraazahexacyclo[20.5.3.1^3,70.1^9,130.0^12,160.0^25,29]dotriaconta-3(32),4,6,9(31),10,12,14,22,24,29-decaen-8-yl]acetic acid] are 17.2 nM and 0.631 nM.
In the case of `Cc1ccc2cc1CN1Cc3cc(c(Cl)cc3OS1(=O)=O)OCCCCn1nnc3c(C)c(ccc31)C2CC(=O)O` (single isomer, unassigned) [Example 22b, [23-Chloro-4,31-dimethyl-27,27-dioxo-21,26-dioxa-27λ^6-thia-1,14,15,16-tetraazahexacyclo[20.5.3.1^3,70.1^9,130.0^12,160.0^25,29]dotriaconta-3(32),4,6,9(31),10,12,14,22,24,29-decaen-8-yl]acetic acid], the EC50 in experiment [1] (setting [3]) stood at 111 nM. Besides, the Kd in experiment [2] was 2.11 nM.
Taken in the same sequence, the figures for `COCCC1CCOc2ccc3c(c2)CN([C@H](C)c2cc(ccc2C)[C@H](CC(=O)O)c2ccc4c(nnn4C1)c2C)S(=O)(=O)O3` (single isomer, unassigned) [Example 24a] were 7.28 nM and 1.1 nM.
For the compound `COCCC1CCOc2ccc3c(c2)CN([C@H](C)c2cc(ccc2C)[C@H](CC(=O)O)c2ccc4c(nnn4C1)c2C)S(=O)(=O)O3` (single isomer, unassigned) [Example 24b], the EC50 in experiment [1] (setting [3]) is 2.45 nM. The Kd in experiment [2] turned out to be 1.23 nM.
As to `COCCC1CCOc2ccc3c(c2)CN([C@H](C)c2cc(ccc2C)[C@@H](CC(=O)O)c2ccc4c(nnn4C1)c2C)S(=O)(=O)O3` (single isomer, unassigned) [Example 24c], in experiment [1] (Homo sapiens, U2OS, 3 h, read-out: CELLULAR U2OS EC50 (nM), U2OS Keap1-NRF2 nuclear translocation cells, 3 h incubation, luminescence, normalized between 1% DMSO and 10 μM andrographolide), the EC50 worked out at 60 nM. In addition, the Kd in experiment [2] is 5 nM.
Consider `COCCC1CCOc2ccc3c(c2)CN([C@H](C)c2cc(ccc2C)[C@@H](CC(=O)O)c2ccc4c(nnn4C1)c2C)S(=O)(=O)O3` (single isomer, unassigned) [Example 24d], for which the concentration for a half-maximal effect (EC50) in experiment [1] (setting [3]) turned out to be 36.4 nM. Also, the Kd in experiment [2] stood at 4.32 nM.
Regarding `COc1cc2c3cc1OCCCCn1nnc4c(C)c(ccc41)C(CC(=O)O)c1ccc(C)c(c1)CN(C3)S(=O)(=O)O2` (single isomer, unassigned) [Example 25a, [23-Methoxy-4,31-dimethyl-27,27-dioxo-21,26-dioxa-27λ^6-thia-1,14,15,16-tetraazahexacyclo[20.5.3.1^3,70.1^9,130.0^12,160.0^25,29]dotriaconta-3(32),4,6,9(31),10,12,14,22,24,29-decaen-8-yl]acetic acid], in experiment [1] (setting [3]), the EC50 came out at 14 nM. Besides, in experiment [2], the Kd stood at 0.562 nM.
For the compound `COc1cc2c3cc1OCCCCn1nnc4c(C)c(ccc41)C(CC(=O)O)c1ccc(C)c(c1)CN(C3)S(=O)(=O)O2` (single isomer, unassigned) [Example 25b, [23-Methoxy-4,31-dimethyl-27,27-dioxo-21,26-dioxa-27λ^6-thia-1,14,15,16-tetraazahexacyclo[20.5.3.1^3,70.1^9,130.0^12,160.0^25,29]dotriaconta-3(32),4,6,9(31),10,12,14,22,24,29-decaen-8-yl]acetic acid], the EC50 in experiment [1] (setting [3]) came to 56.8 nM. Also, in experiment [2], the Kd was 1.16 nM.
